Consider five molecules from patent US10124003B2, “Therapeutic agent for FGFR inhibitor-resistant cancer” (TAIHO PHARMACEUTICAL CO., LTD., priority 2013, dated 2018).

Test [1] concerns the target purified recombinant human FGFR2 protein (Homo sapiens (Human), UniProt P21802). Briefly: Inhibitory effect on FGFR2 kinase activity (Test Example 1). Format: biochemical. Particulars: ATP 75 μM.
Experimental: EDTA (final concentration: 30 mM) diluted with a separation buffer (Caliper Life Sciences, Inc.) was added thereto to terminate the kinase reaction. […] The level of phosphorylation was determined from the quantitative ratio.
For test [2], the system named is OCUM-2MD3 cells. The note with it: Homo sapiens, OCUM-2MD3, 72 h.
Experimental: Human-derived gastric cancer OCUM-2MD3 cells, which overexpressed FGFR2, were subcultured daily in a Dulbecco's modified Eagle's medium (DMEM) containing 10% fetal bovine serum (FBS) at a cell density of not more than 80%. In order to initiate a test of the cell growth-inhibitory effect of the compounds, the OCUM-2MD3 cells were suspended in the above DMEM medium and seeded in a 96-well flat-bottom plate so that each well contained 3,000 cells. Then, the cells were cultured in an incubator containing 5% carbon dioxide gas at 37° C. for one day. […] The DMSO solution of the test compound was diluted with the medium used for cultivation, and the diluted solution was added to each well of the cell culture plate so that the final concentration of DMSO became 0.5%. Then, the cells were cultured in an incubator containing 5% carbon dioxide gas at 37° C. for 72 hours. The number of cells was measured at the time of the addition of the test compound and 72 hours later after culture by using a Cell Counting Kit-8 (produced by Dojindo Laboratories) according to a protocol recommended by Dojindo Laboratories. […] After completion of the reaction, the absorbance at a wavelength of 450 nm was measured by a microplate reader. […]
T: absorbance of well to which test compound was added
C: absorbance of well to which test compound was not added
C0: absorbance of well measured before addition of compound
Test [3] concerns OCUM-2MD3 cells. Briefly: Cell growth inhibition, OCUM-2MD3 parent cells (Test Example 7). Format: cell-based, human. Particulars: OCUM-2MD3 parent cell.
The subject of test [4] is AZD4547 resistant OCUM-2MD3 cells. As to the kind of experiment: Cell growth inhibition, AZD4547 resistant OCUM-2MD3 cells (Test Example 7). Format: cell-based, human.

Like-named read-outs stand apart in the source and are kept apart here. Some results are limits rather than exact numbers.

Sequence of purified recombinant human FGFR2 protein (P21802 22-821): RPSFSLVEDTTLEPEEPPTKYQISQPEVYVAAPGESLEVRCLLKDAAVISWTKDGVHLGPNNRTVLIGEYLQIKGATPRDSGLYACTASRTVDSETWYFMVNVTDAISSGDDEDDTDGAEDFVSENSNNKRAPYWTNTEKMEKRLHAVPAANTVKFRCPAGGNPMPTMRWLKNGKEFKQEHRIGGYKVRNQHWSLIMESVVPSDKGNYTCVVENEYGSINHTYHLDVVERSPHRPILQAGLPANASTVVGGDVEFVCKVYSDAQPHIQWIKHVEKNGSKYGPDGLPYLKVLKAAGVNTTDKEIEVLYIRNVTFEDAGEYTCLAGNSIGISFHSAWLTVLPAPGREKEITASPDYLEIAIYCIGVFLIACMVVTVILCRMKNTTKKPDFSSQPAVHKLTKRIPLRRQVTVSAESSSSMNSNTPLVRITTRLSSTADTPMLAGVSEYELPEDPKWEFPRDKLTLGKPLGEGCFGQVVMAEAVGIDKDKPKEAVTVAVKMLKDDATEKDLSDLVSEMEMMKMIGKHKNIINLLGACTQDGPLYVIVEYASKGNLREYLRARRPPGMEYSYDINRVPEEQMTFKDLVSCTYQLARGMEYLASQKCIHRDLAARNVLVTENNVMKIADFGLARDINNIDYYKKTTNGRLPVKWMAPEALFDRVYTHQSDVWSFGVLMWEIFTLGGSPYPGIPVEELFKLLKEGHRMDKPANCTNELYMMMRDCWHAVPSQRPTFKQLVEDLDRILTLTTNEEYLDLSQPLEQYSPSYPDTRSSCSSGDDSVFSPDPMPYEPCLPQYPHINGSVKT

Take `CC(C)c1cc(C#Cc2nn([C@H]3CCN(C(=O)/C=C/CN(C)C)C3)c3ncnc(N)c23)cc(C(C)C)c1` [Ref. Ex. Compound 4, (S)-1-(3-(4-amino-3-((3,5-diisopropylphenyl)ethynyl)-1H-pyrazolo[3,4-d]pyrimidin-1-yl)pyrrolidin-1-yl)-4-(dimethylamino)but-2-en-1-one]: the IC50 in test [1] was greater than 10000 nM. Take `C=CC(=O)N1C[C@@H](n2cc(C#Cc3cc(OC)cc(OC)c3)c3c(N)ncnc32)C[C@H]1C(=O)OC` [Ex. Compound 66, (2S,4S)-methyl 1-acryloyl-4-(4-amino-5-((3,5-dimethoxyphenyl)ethynyl)-7H-pyrrolo[2,3-d]pyrimidin-7-yl)pyrrolidine-2-carboxylate]: in test [1], the IC50 was less than 0.3 nM. The molecule also displayed a 50% growth inhibitory concentration (GI50) in the test with OCUM-2MD3 cells [2] of less than 4.6 nM. On to `CCN1CCN(c2ccc(Nc3cc(N(C)C(=O)Nc4c(Cl)c(OC)cc(OC)c4Cl)ncn3)cc2)CC1` [BGJ398], for which the IC50 in the test with OCUM-2MD3 cells [3] (Homo sapiens) was found to be 7.6 nM; in test [4] (Homo sapiens, OCUM-2MD3, read-out: Cell growth inhibition, IC50 (nM) AZD4547 resistant cells), 55.6 nM. In the test with OCUM-2MD3 cells [2], `CCOc1cc(C#Cc2nn(C3CN(C(=O)/C=C/CN(C)C)C3)c3ncnc(N)c23)cc(OCC)c1` [Ex. Compound 25, 1-(3-(4-amino-3-((3,5-diethoxyphenyl)ethynyl)-1H-pyrazolo[3,4-d]pyrimidin-1-yl)azetidin-1-yl)-4-(dimethylamino)but-2-en-1-one] registered a 50% growth inhibitory concentration (GI50) of 13 nM. In the case of `COc1cc(CCc2cc(NC(=O)c3ccc(N4CC(C)NC(C)C4)cc3)n[nH]2)cc(OC)c1` (centres unmarked) [AZD4547], the IC50 came out at 6.1 nM with OCUM-2MD3 cells [3] and 159 nM in test [4] (read-out: Cell growth inhibition, IC50 (nM) AZD4547 resistant cells, AZD4547 resistant OCUM-2MD3 cells, range in brackets).

By IC50 is commonly meant the midpoint of a concentration-inhibition curve. The term GI50 denotes the concentration giving 50% growth inhibition. High values mean lower sensitivity of the cells, low ones greater sensitivity of the cells.
